For one data set, the system named is SARS-CoV replicon. The data set is described as follows: microbe, parasite or virus in culture. To be noted: for IC50 / inhibition at 10 µM: Severe acute respiratory syndrome coronavirus, HEK-293T, 60 h. Type of data set: cell-based.
A further data set has as its system SARS-CoV-2 replicon. Briefly: microbe, parasite or virus in culture. Type of data set: cell-based. To be noted: HEK293T cells; for antiviral activity relative to GS-441524 / inhibition of SARS-CoV-2 replicon replication: in words; for inhibition at 10 µM / IC50: Severe acute respiratory syndrome coronavirus 2, HEK-293T, 60 h. A general note: A replicon is a self-replicating genome or part of one, used to study replication in cells.

A further data set concerns SARS-CoV-2 (B.1). The data set is described as follows: microbe, parasite or virus in culture. Type of data set: cell-based.
Data set [1] can be described thus: PK study in cynomolgus monkeys. In kind it is in vivo. The protocol:
Three male cynomolgus monkeys weighing 3-5 kg were used for the pharmacokinetic study. Compound AVT006 was administered intragastrically with the dose of 10 mg/kg on day 1. After administration, the blood samples for plasma were collected from a jugular vein from each monkey over 48 hours. The plasma samples (1 mL) were obtained at predose, and 0.083, 0.25, 0.5, 1, 2, 4, 8, 24 and 48 h postdose. After recovery for three days, compound AVT006 was administered intravenously with a dose of 5 mg/kg at day 5. The blood samples for plasma were collected from a jugular vein from each monkey over 48 hours. 1 mL plasma samples were obtained at predose, and 0.083, 0.25, 0.5, 1, 2, 4, 8, 24 and 48 h postdose. Samples were treated with anticoagulant EDTA-K2 and centrifuged under 2000 g for 10 min at 4° C. The supernatants (plasma) were collected and stored at −65° C. for future analysis. The drug concentration in each sample was tested by Watson LIMS 7.5 SP1 HPLC/MS. The pharmacokinetic parameters were calculated using WinNonlin 6.3 software.

In another data set the test system is MHV-A59. Briefly: In vivo efficacy in murine hepatitis virus (MHV-A59) infected BALB/c mice. The text has this:
• Mice: SPF-grade male BALB/c mice, 100, weighing 18-22 g. • Operation: The experimental mice were infected with MHV-A59 nasal drops and randomly divided into ten groups (n=10 each).
The mice were monitored daily for disease symptoms, including body weight, clinical symptoms, and death, for 14 days. Record the body weight changes of mice in each treatment group after virus infection (FIG. 4A) and survival curves (FIG. 4B). The fluorescence quantitative PCR method was used to determine the virus titer in mouse liver 72 hours after virus infection (FIG. 4C).

For the next data set, the system named is SARS-CoV-2. The data set is described as follows: In vivo efficacy against SARS-CoV-2 in hACE2 humanized mice.
The conditions of data set [2]: as reported by NIH OpenData Portal; species not printed (context non-human primates); cited from earlier work.
Setting [3] is: Severe acute respiratory syndrome coronavirus 2, Vero C1008, 48 h.
The mark [4] stands for this setting: male, cynomolgus monkey, plasma, IV 5 mg/kg, analyzed ATV006.

Molecules are shown by their SMILES. Entries after “also recorded” stand apart in the source; their conditions may differ. Like-named read-outs stand apart in the source and are kept apart here.

A word on the IC50: it is the concentration that gives 50% inhibition. One may read the inhibition as how much of the control response was suppressed. Read a low inhibition as a weak effect. For orientation: AUC(0-inf) means the area under the concentration-time curve extrapolated to infinity. The low end stands for low exposure, the high end for high exposure. For orientation: AUC(0-t) means the area under the concentration-time curve up to a stated or last time point. As a reminder, the Cmax is the maximum level reached in the sampled fluid or tissue. Broadly, the Tmax is the time at which the peak concentration occurs. By half-life is commonly meant the time in which the quantity being followed falls by half. A higher half-life goes with slow loss. Take `CC(C)C(=O)OC[C@H]1O[C@@](C#N)(c2ccc3c(N)ncnn23)[C@H](O)[C@@H]1O` [ATV006, ((2R,3S,4R,5R)-5-(4-aminopyrrolo[2,1-f][1,2,4]triazin-7-yl)-5-cyano-3,4-dihydroxytetrahydrofuran-2-yl)methyl isobutyrate]: in the data set on SARS-CoV replicon, the “activity relative to GS-441524” value is recorded as “twice that of compound GS-441524”, half-maximal inhibition (IC50) was put at 570 nM and the inhibition at 10 µM was 99.2%. In the data set on SARS-CoV-2 replicon, the “antiviral activity relative to GS-441524” value is “lower IC50 values and higher antiviral activity”; the “inhibition of SARS-CoV-2 replicon replication” value is reported as “significant inhibitory effects”; the inhibition at 10 µM was determined as 98.6%; inhibition was half-maximal at 510 nM (IC50). This molecule had a concentration for half-maximal inhibition (IC50) in the data set on SARS-CoV-2 (B.1) (setting [3]) of 1360 nM. Also, the “metabolism to GS-441524” value in data set [1] (in words) is reported as “quickly metabolized into the active metabolite GS-441524”. In data set [1] (setting [4]), the AUC(0-inf) was determined as 19.6 ± 5.43 ng·h/mL, the area under the curve AUC(0-t) amounted to 19.4 ± 5.35 ng·h/mL, the Cmax is 132 ± 37.4 ng/mL and the Tmax is 5 min. This molecule also gave a half-life in data set [1] (setting [4]) of 4.15 ± 0.446 min. For the same molecule, in the data set on MHV-A59 (BALB/c mice, 2 mg/kg IG), the “day after infection on which mice began to die” value stood at 4 days and the median death rate stood at 6 days. The same molecule yielded a mortality rate with MHV-A59 (BALB/c mice, 2 mg/kg IG, by day 10 after infection, vs control group p=0.0291) of 100%. In addition, the survival entry in the data set with MHV-A59 (BALB/c mice, 2 mg/kg IG, in words, 2 mg/kg) is on record as “positive effect in prolonging the survival time of animals; also recorded: increased the survival rate”. Moreover, the “death and weight loss of mice” value in the data set with MHV-A59 (BALB/c mice, ATV006 IG at doses except 2 mg/kg (5-50 mg/kg), 14 days, in words) is “can avoid the death and weight loss of mice at low doses”. Moreover, the “antiviral activity in vivo compared with GS-441524 and RDV” value in the data set on MHV-A59 (BALB/c mice, in words) is recorded as “better antiviral activity in vivo”. The “replication of the virus in the liver” value with MHV-A59 (BALB/c mice, virus titer in liver 72 hours after infection, in words) is “significantly inhibit the replication of the virus in the liver”. The antiviral effect entry in the data set on MHV-A59 (mice, medium dose 5 mg/kg-50 mg/kg, in words) is on record as “excellent antiviral effect in a dose-dependent manner”. In addition, in the data set on SARS-CoV-2, the “amount of viral genome (N gene) in lung tissue” value is recorded as “significantly lower than that in the control group” and the “amount of viral subgenome (subgenomic N) in lung tissue” value was “significantly lower than that in the control group”.

In the case of `CCCC(=O)OC[C@H]1O[C@@](C#N)(c2ccc3c(N)ncnn23)[C@H](O)[C@@H]1O` [ATV009, ((2R,3S,4R,5R)-5-(4-aminopyrrolo[2,1-f][1,2,4]triazin-7-yl)-5-cyano-3,4-dihydroxytetrahydrofuran-2-yl)methyl butyrate], in the data set on SARS-CoV-2 replicon, the “antiviral activity relative to GS-441524” value was “improved”, the inhibition at 10 µM was 98.8% and inhibition was half-maximal at 220 nM (IC50). The molecule also came in with an IC50 in the data set with SARS-CoV-2 (B.1) (setting [3]) of 1330 nM.

As to `CCCCCCCCC(=O)OC[C@H]1O[C@@](C#N)(c2ccc3c(N)ncnn23)[C@H](O)[C@@H]1O` [ATV010, ((2R,3S,4R,5R)-5-(4-aminopyrrolo[2,1-f][1,2,4]triazin-7-yl)-5-cyano-3,4-dihydroxytetrahydrofuran-2-yl)methyl nonanoate], in the data set with SARS-CoV-2 replicon, the “antiviral activity relative to GS-441524” value is recorded as “improved”, the inhibition at 10 µM is 99% and it took 320 nM to reach half-maximal inhibition (IC50). The same molecule registered a concentration for half-maximal inhibition (IC50) in the data set with SARS-CoV-2 (B.1) (setting [3]) of 696 nM.

For the molecule `CCC(CC)C(=O)OC[C@H]1O[C@@](C#N)(c2ccc3c(N)ncnn23)[C@H](O)[C@@H]1O` [ATV011, ((2R,3S,4R,5R)-5-(4-aminopyrrolo[2,1-f][1,2,4]triazin-7-yl)-5-cyano-3,4-dihydroxytetrahydrofuran-2-yl)methyl 2-ethylbutanoate], in the data set with SARS-CoV-2 replicon, the “antiviral activity relative to GS-441524” value is on record as “improved”, the inhibition at 10 µM was determined as 98.9% and half-maximal inhibition (IC50) was put at 320 nM. Further, in the data set with SARS-CoV-2 (B.1) (setting [3]), the IC50 is 2120 nM.

Regarding `N#C[C@@]1(c2ccc3c(N)ncnn23)O[C@H](COC(=O)c2ccccc2)[C@@H](O)[C@H]1O` [ATV013, ((2R,3S,4R,5R)-5-(4-aminopyrrolo[2,1-f][1,2,4]triazin-7-yl)-5-cyano-3,4-dihydroxytetrahydrofuran-2-yl)methyl benzoate], in the data set on SARS-CoV-2 replicon, testing at 10 µM gave an inhibition of 97.7% and half-maximal inhibition (IC50) required 500 nM. The IC50 in the data set on SARS-CoV-2 (B.1) (setting [3]) turned out to be 2260 nM.

For the molecule `N#C[C@@]1(c2ccc3c(N)ncnn23)O[C@H](COC(=O)C2CCCCC2)[C@@H](O)[C@H]1O` [ATV014, ((2R,3S,4R,5R)-5-(4-aminopyrrolo[2,1-f][1,2,4]triazin-7-yl)-5-cyano-3,4-dihydroxytetrahydrofuran-2-yl)methyl cyclohexanecarboxylate], in the data set on SARS-CoV-2 replicon, the “antiviral activity relative to GS-441524” value was “lower IC50 values and higher antiviral activity”; the “inhibition of SARS-CoV-2 replicon replication” value is given as “significant inhibitory effects”; at 10 µM the inhibition was 98.2%; the concentration for half-maximal inhibition (IC50) came out at 260 nM. The molecule also returned an IC50 in the data set with SARS-CoV-2 (B.1) of 331 nM.

In the data set with SARS-CoV-2 replicon, `CC(C)CC(=O)OC[C@H]1O[C@@](C#N)(c2ccc3c(N)ncnn23)[C@H](O)[C@@H]1O` [ATV017, ((2R,3S,4R,5R)-5-(4-aminopyrrolo[2,1-f][1,2,4]triazin-7-yl)-5-cyano-3,4-dihydroxytetrahydrofuran-2-yl)methyl 3-methylbutanoate] yielded an inhibition at 10 µM of 97.2% and a 50% inhibitory concentration (IC50) of 430 nM. For the same molecule, the concentration for half-maximal inhibition (IC50) in the data set with SARS-CoV-2 (B.1) (setting [3]) came out at 2190 nM.

In the data set on SARS-CoV-2 replicon, `CC(C)(C)C(=O)OC[C@H]1O[C@@](C#N)(c2ccc3c(N)ncnn23)[C@H](O)[C@@H]1O` [ATV018, ((2R,3S,4R,5R)-5-(4-aminopyrrolo[2,1-f][1,2,4]triazin-7-yl)-5-cyano-3,4-dihydroxytetrahydrofuran-2-yl)methyl pivalate] displayed an inhibition at 10 µM of 97.5% and an IC50 of 420 nM. In addition, in the data set with SARS-CoV-2 (B.1) (setting [3]), the IC50 was 938 nM.

In general, bioavailability refers to the share of a dose that reaches the circulation, judged against a reference dose that is usually intravenous. As to `N#C[C@@]1(c2ccc3c(N)ncnn23)O[C@H](CO)[C@@H](O)[C@H]1O` [GS-441524, reference compound], the IC50 in the data set with SARS-CoV replicon is 1100 nM; in the data set on SARS-CoV-2 replicon, 950 nM; in the data set with SARS-CoV-2 (B.1), 2280 nM. The inhibition at 10 µM in the data set with SARS-CoV replicon and with SARS-CoV-2 replicon was 99.8% in each case. For the same molecule, in data set [2], the bioavailability is recorded as 8.3%.

The record behind these values is patent US20240317754A1 (priority 2020, published 2024).
